Consider 2 compounds from US20060069132A1, “Azolecarboxamide herbicides” (priority 2004, published 2006).

The structures appear in SMILES notation.

For one assay, the system named is annual blugrass. Nature of the assay: Test F pre-/postemergence herbicide test. It is filed as in vivo, Poa annua. The source says:
(§1) Seeds of plant species selected from annual blugrass (Poa annua L.), blackgrass (Alopecurus myosuroides Huds.), catchweed bedstraw (Gallium aparine L.), common chickweed (Stellaria media (L.) Vill./Cyr.), downy bromegrass (Bromus tectorum L.), green foxtail (Setaria viridis (L.) Beauv.), Italian ryegrass (Lolium multiflorum Lam.), kochia (Kochia scoparia (L.). Schrad.), lambsquarters (Chenopodium album L.), littleseed canarygrass (Phalaris minor Retz.), pigweed (Amaranthus retroflexus L.), Russian thistle (Salsola kali L. ssp. Ruthenica (Iljin) Soo), wild buckwheat (Polygonum convolvulus L.), wild mustard (Sinapis arvensis L.), wild oat (Avena fatua L.), windgrass (Apera spica-venti (L.) Beauv.), winter barley (Hordeum vulgare L.), and wheat (Triticum aestivum L.) were planted and treated preemergence with test chemicals formulated in a non-phytotoxic solvent mixture which included a surfactant.
(§2) At the same time, plants selected from these crop and weed species were treated with postemergence applications of some of the test chemicals formulated in the same manner. Plants ranged in height from 2 to 18 cm (1- to 4-leaf stage) for postemergence treatments. Treated plants and controls were maintained in a greenhouse for 12 to 14 days, after which time all species were compared to controls and visually evaluated. Plant response ratings, summarized in Table F, are based on a scale of 0 to 100 where 0 is no effect and 100 is complete control. A dash (-) response means no test result.

For the next assay, the system named is lambsquarters. Briefly: Test F pre-/postemergence herbicide test. It is filed as in vivo, Chenopodium album.
From the text: as §1, §2

The next assay concerns Russian thistle. Briefly: Test F pre-/postemergence herbicide test. It is filed as in vivo, Salsola kali.
From the text: as §1, §2

The test system of a further assay is Surinam grass (BRADC). Briefly: Test J Compounds 2 and 6 alone and in combination with other herbicides, foliage spray. It is filed as in vivo, Urochloa decumbens. On the set-up: key to BRADC Obsd.: 0 = no effect, 100 = complete control. Conditions: for BRADC Obsd.: applied alone; for observed effect of mixture compared with additive effect expected from Colby's Equation: Surinam grass, foliage spray, 15 days after treatment. The source says:
(§3) Colby's Equation was used to calculate the expected additive herbicidal effect of the mixtures of Compound 6 with Harmony® Extra (i.e. a 2:1 mixture by weight of thifensulfuron-methyl and tribenuron-methyl). Colby's Equation (Colby, S. R. “Calculating Synergistic and Antagonistic Responses of Herbicide Combinations,” Weeds, 15(1), pp 20-22 (1967)) calculates the expected additive effect of herbicidal mixtures, and for two active ingredients is of the form: Pa+b=Pa+Pb−(PaPb/100) wherein • Pa+b is the percentage effect of the mixture expected from additive contribution of the individual components, • Pa is the observed percentage effect of the first active ingredient at the same use rate as in the mixture, and • Pb is the observed percentage effect of the second active ingredient at the same use rate as in the mixture.
Seeds of test plants consisting of barnyardgrass (ECHCG; Echinochloa crus-galli (L.) Beauv.), blackgrass (ALOMY; Alopecurus myosuroides Huds.), Surinam grass (BRADC; Urochloa decumbens (Staph) R. D. Webster, previously named Brachiaria decumbens Stapf), cocklebur (XANST, Xanthium strumarium L.), corn (ZEAMD, Zea mays L. cv. ‘Pioneer 33G26’), large crabgrass (DIGSA, Digitaria sanguinalis (L.) Scop.), giant foxtail (SETFA, Setaria faberi Herrm.), lambsquarters (CHEAL, Chenopodium album L.), morningglory (IPOCO, Ipomoea coccinea L.), pigweed (AMARE, Amaranthus retroflexus L.), velvetleaf (ABUTH, Abutilon theophrasti Medik.) wheat (TRZAS, Triticum aestivum L. cv. ‘Recital’) and wild oat (AVEFA, Avena fatua L.) were planted in Redi-Earth® planting medium (Scotts Company, 14111 Scottslawn Road, Marysville, Ohio 43041) comprising spaghnum peat moss and vermiculite. Seeds of small-seeded species were planted about 1 cm deep; larger seeds were planted about 2.5 cm deep. Plants were grown in a greenhouse using supplemental lighting to maintain a photoperiod of about 14 hours; daytime and nighttime temperatures were about 24-30° C. and 22-25° C., respectively. Balanced fertilizer was applied through the watering system. The plants were grown for 7 to 11 days so that at time of treatment the plants ranged in height from 2 to 18 cm (1- to 4-leaf stage). Treatments consisted of Compounds 2 and 6 (technical material), atrazine (90DF), terbacil (Sinbar® 80DF), hexazinone (Velpar® 75WG), diuron (Karmex® 80WP) and paraquat (Gramoxone® Extra, 37%) alone and in combination, suspended or dissolved in an aqueous solvent comprising a nonionic surfactant and applied as a foliage spray using a volume of 541 L/ha. Each treatment was triply replicated. […] Treated plants and controls were maintained in the greenhouse and watered as needed with care to not wet the foliage for the first 24 hours after treatment. The effects on the plants 15 days after treatment were visually compared to untreated controls. Plant response ratings, listed in Table J as the means of the thee replicates, are based on a scale of 0 to 100 where 0 is no effect and 100 is complete control. Also listed in Table J are the expected effects for the mixtures calculated using Colby's Equation.

The next assay concerns cocklebur (XANST). The description is as above. It is filed as in vivo, Xanthium strumarium. On the set-up: key: 0 = no effect, 100 = complete control. Conditions: applied alone. The source says: (§4) Seeds of test plants consisting of barnyardgrass (ECHCG; Echinochloa crus-galli (L.) Beauv.), blackgrass (ALOMY; Alopecurus myosuroides Huds.), Surinam grass (BRADC; Urochloa decumbens (Staph) R. D. Webster, previously named Brachiaria decumbens Stapf), cocklebur (XANST, Xanthium strumarium L.), corn (ZEAMD, Zea mays L. cv. ‘Pioneer 33G26’), large crabgrass (DIGSA, Digitaria sanguinalis (L.) Scop.), giant foxtail (SETFA, Setaria faberi Herrm.), lambsquarters (CHEAL, Chenopodium album L.), morningglory (IPOCO, Ipomoea coccinea L.), pigweed (AMARE, Amaranthus retroflexus L.), velvetleaf (ABUTH, Abutilon theophrasti Medik.) wheat (TRZAS, Triticum aestivum L. cv. ‘Recital’) and wild oat (AVEFA, Avena fatua L.) were planted in Redi-Earth® planting medium (Scotts Company, 14111 Scottslawn Road, Marysville, Ohio 43041) comprising spaghnum peat moss and vermiculite. Seeds of small-seeded species were planted about 1 cm deep; larger seeds were planted about 2.5 cm deep. Plants were grown in a greenhouse using supplemental lighting to maintain a photoperiod of about 14 hours; daytime and nighttime temperatures were about 24-30° C. and 22-25° C., respectively. Balanced fertilizer was applied through the watering system. […] Also listed in Table J are the expected effects for the mixtures calculated using Colby's Equation.

The test system of the next assay is pigweed (AMARE). Described as above. It is filed as in vivo, Amaranthus retroflexus. On the set-up: key to AMARE Obsd.: 0 = no effect, 100 = complete control. The conditions noted are these: for AMARE Obsd.: applied alone.
From the text: as §3
as §4, with “respectively.” for “respectively. Balanced fertilizer was applied through the watering system.”

A further assay relates to velvetleaf (ABUTH). The description is as above. It is filed as in vivo, Abutilon theophrasti. More on the design: key: 0 = no effect, 100 = complete control. Conditions: applied alone.
From the text: Colby's Equation was used to calculate the expected additive herbicidal effect of the mixtures of Compound 6 with Harmony® Extra (i.e. a 2:1 mixture by weight of thifensulfuron-methyl and tribenuron-methyl). […]
as §4, with “vermiculite.” for “vermiculite. Seeds of small-seeded species were planted about 1 cm deep; larger seeds were planted about 2.5 cm deep. Plants were grown in a greenhouse using supplemental lighting to maintain a photoperiod of about 14 hours; daytime and nighttime temperatures were about 24-30° C. and 22-25° C., respectively. Balanced fertilizer was applied through the watering system.”

For `CCn1nc(C(C)(C)C)cc1C(=O)Nc1cc(C(=O)OC(C)C)c(F)cc1F` [Compound 248], the “Plant response rating (0-100), Bluegrass” value with annual blugrass (Postemergence, 31 g ai/ha) was 50; in the assay with annual blugrass (Postemergence, 62 g ai/ha), 50; in the assay on annual blugrass (Postemergence, 125 g ai/ha) it was 60; in the assay on annual blugrass (Postemergence, 250 g ai/ha) it was 70; in the assay with annual blugrass (Preemergence, 31 g ai/ha) it was 70; with annual blugrass (Preemergence, 62 g ai/ha), 70. In addition, the “Plant response rating (0-100), Bluegrass” value with annual blugrass (Preemergence, 125 g ai/ha) stood at 100; in the assay on annual blugrass (Preemergence, 250 g ai/ha), 100. The “Plant response rating (0-100), Lambsquarters” value in the assay with lambsquarters (Postemergence, 31 g ai/ha) stood at 35; in the assay with lambsquarters (Postemergence, 62 g ai/ha), 60; in the assay on lambsquarters (Postemergence, 125 g ai/ha) it was 60; in the assay on lambsquarters (Postemergence, 250 g ai/ha), 60; in the assay with lambsquarters (Preemergence, 31 g ai/ha) it was 40; with lambsquarters (Preemergence, 62 g ai/ha), 40. Further, the “Plant response rating (0-100), Lambsquarters” value in the assay on lambsquarters (Preemergence, 125 g ai/ha) was 100; in the assay with lambsquarters (Preemergence, 250 g ai/ha), 100. For the same compound, the “Plant response rating (0-100), Thistle” value was found to be 25 in the assay on Russian thistle (Postemergence, 31 g ai/ha); 30 in the assay with Russian thistle (Postemergence, 62 g ai/ha); 30 in the assay with Russian thistle (Postemergence, 125 g ai/ha); 40 in the assay with Russian thistle (Postemergence, 250 g ai/ha); 30 in the assay on Russian thistle (Preemergence, 31 g ai/ha); 30 in the assay with Russian thistle (Preemergence, 62 g ai/ha). The “Plant response rating (0-100), Thistle” value in the assay on Russian thistle (Preemergence, 125 g ai/ha) came to 30; in the assay on Russian thistle (Preemergence, 250 g ai/ha), 45.
Consider `CCn1nc(C(C)(C)C)cc1C(=O)Nc1cc(C(=O)N(C)C)ccc1F` [Compound 6, N-[5-[(dimethylamino)carbonyl]-2-fluorophenyl]-3-(1,1-dimethylethyl)-1-ethyl-1H-pyrazole-5-carboxamide], for which the “BRADC Obsd.” value was determined as 15 with Surinam grass (BRADC) (62 g a.i./ha) and 40 in the assay on Surinam grass (BRADC) (125 g a.i./ha). In addition, the “observed effect of mixture compared with additive effect expected from Colby's Equation” value with Surinam grass (BRADC) (mixture with diuron) is reported as “greater than additive”; in the assay on Surinam grass (BRADC) (mixture with diuron, listed as compound 6), “synergistic activity”; with Surinam grass (BRADC) (mixture with hexazinone), “greater than additive”; in the assay with Surinam grass (BRADC) (mixture with hexazinone, listed as compound 6) it was “synergistic activity”; in the assay with Surinam grass (BRADC) (mixture with terbacil), “greater than additive”; in the assay with pigweed (AMARE) (mixture with atrazine, pigweed, foliage spray, 15 days after treatment), “greater than additive”. Also, the “XANST Obsd.” value with cocklebur (XANST) (62 g a.i./ha) is 67; in the assay with cocklebur (XANST) (125 g a.i./ha), 63. Further, the figures for the “AMARE Obsd.” value in the assay with pigweed (AMARE) (62 g a.i./ha) and with pigweed (AMARE) (125 g a.i./ha) were 28 and 60, respectively. Further, the entries for the “ABUTH Obsd.” value with velvetleaf (ABUTH) (62 g a.i./ha) and with velvetleaf (ABUTH) (125 g a.i./ha) were 27 and 47, respectively.
